Measurements from US11180462B2, “Microbiocidal oxadiazole derivatives” (SYNGENTA PARTICIPATIONS AG, priority 2015, dated 2021).

Columns and labels:
[1] = system: Puccinia recondita f. Sp. Tritici; test: Fungicidal activity against Puccinia recondita f. sp. tritici / wheat / leaf disc preventative (brown rust); assay type: in vivo; conditions: foliar, 200 ppm in the applied formulation, wheat leaf segments, preventative, compared to untreated control leaf disks, read-out: disease control
Procedure, shortened: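 Preventative leaf-segment test, wheat cv. Kanzler on water agar. Spray compound at 200 ppm, inoculate with spores 1 day later; 19° C., 75% rh, 12/12 h light. Read-out: % disease control vs untreated, 7 to 9 days after application.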

[2] = system: Puccinia recondita f. Sp. Tritici; test: Fungicidal activity against Puccinia recondita f. sp. tritici / wheat / leaf disc curative (brown rust); assay type: in vivo; conditions: foliar, 24 h, 200 ppm in the applied formulation, wheat leaf segments, curative (applied 1 day after inoculation), compared to untreated control leaf disks, read-out: disease control
Procedure, shortened: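 % disease control vs untreated, scored 6–8 d post-application. Wheat cv. Kanzler segments, spore-inoculated, dark 19° C/75% RH; formulated cpd applied 1 d post-inoc; then 19° C, 75% RH, 12 h L/12 h D.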

[3] = system: Phakopsora Pachyrhizi; test: Fungicidal activity against Phakopsora pachyrhizi / soybean / leaf disc preventative (Asian soybean rust); assay type: in vivo; conditions: foliar, 200 ppm in the applied formulation, soybean leaf disks, compared to untreated control leaf disks, read-out: disease control
Procedure, shortened: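 Preventative soybean leaf-disc test: discs on water agar sprayed with diluted formulated compound, inoculated one day later with spores on the lower surface. Held 24–36 h dark at 20°C, 75% rh, then 12 h light/day; percent disease control versus untreated discs scored 12–14 days after application.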

[4] = system: Glomerella lagenarium (Colletotrichum lagenarium); test: Fungicidal activity against Glomerella lagenarium (Colletotrichum lagenarium) liquid culture / cucumber / preventative (anthracnose); assay type: cell-based; conditions: Colletotrichum orbiculare; 20 ppm in the applied formulation; liquid culture (PDB), growth inhibition measured photometrically after 3 to 4 days; compared to untreated control; read-out: disease control
Procedure, shortened: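 Photometric read-out of fungal growth after 2–7 days, expressed as percent antifungal activity versus untreated check. Cryo-stored conidia in PDB; compound at 20 ppm; dark, 24 °C, 96% RH.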

C#CCN(Cc1ccc(-c2noc(C(F)(F)F)n2)cc1)C(=O)C1CCC1 [Compound 1.178, N-prop-2-ynyl-N-[[4-[5-(trifluoromethyl)-1,2,4-oxadiazol-3-yl]phenyl]methyl]-cyclobutane-carboxamide]
≥ 80%: pest or weed control at 200 ppm [1] | pest or weed control at 200 ppm [2] | pest or weed control at 200 ppm [3] | inhibition of growth at 20 ppm [4]

CCC(C)NC(=O)N(Cc1ccc(-c2noc(C(F)(F)F)n2)cc1)OC (stereo not drawn) [Compound 3.9, 1-methoxy-3-sec-butyl-1-[[4-[5-(trifluoromethyl)-1,2,4-oxadiazol-3-yl]phenyl]methyl]urea]
≥ 80%: pest or weed control at 200 ppm [1] | pest or weed control at 200 ppm [2] | pest or weed control at 200 ppm [3] | inhibition of growth at 20 ppm [4]

C=CCN(Cc1ccc(-c2noc(C(F)(F)F)n2)cc1)C(=O)CCOC [Compound 1.476, N-allyl-3-methoxy-N-[[4-[5-(trifluoromethyl)-1,2,4-oxadiazol-3-yl]phenyl]methyl]-propanamide]
≥ 80%: pest or weed control at 200 ppm [1] | pest or weed control at 200 ppm [2] | pest or weed control at 200 ppm [3] | inhibition of growth at 20 ppm [4]

CCC(C)N(Cc1ccc(-c2noc(C(F)(F)F)n2)cc1)C(=O)C(C)C (stereo not drawn) [Compound 1.369, 2-methyl-N-sec-butyl-N-[[4-[5-(trifluoromethyl)-1,2,4-oxadiazol-3-yl]phenyl]methyl]-propanamide]
≥ 80%: pest or weed control at 200 ppm [1] | pest or weed control at 200 ppm [2] | pest or weed control at 200 ppm [3] | inhibition of growth at 20 ppm [4]

C#CCN(Cc1ccc(-c2noc(C(F)(F)F)n2)cc1)C(=O)C1CC1(F)F (stereo not drawn) [Compound 1.157, 2,2-difluoro-N-prop-2-ynyl-N-[[4-[5-(trifluoromethyl)-1,2,4-oxadiazol-3-yl]phenyl]methyl]-cyclopropane-carboxamide]
≥ 80%: pest or weed control at 200 ppm [1] | pest or weed control at 200 ppm [2] | pest or weed control at 200 ppm [3] | inhibition of growth at 20 ppm [4]

CC1CC1C(=O)N(Cc1ccc(-c2noc(C(F)(F)F)n2)cc1)C(C)C (stereo not drawn) [Compound 1.676, N-isopropyl-2-methyl-N-[[4-[5-(trifluoromethyl)-1,2,4-oxadiazol-3-yl]phenyl]methyl]-cyclopropane-carboxamide]
≥ 80%: pest or weed control at 200 ppm [1] | pest or weed control at 200 ppm [2] | pest or weed control at 200 ppm [3] | inhibition of growth at 20 ppm [4]

CC1(C(=O)N(Cc2ccc(-c3noc(C(F)(F)F)n3)cc2)CC2CC2)CC1 [Compound 1.226, N-(cyclopropylmethyl)-1-methyl-N-[[4-[5-(trifluoromethyl)-1,2,4-oxadiazol-3-yl]phenyl]methyl]-cyctopropane-carboxamide]
≥ 80%: pest or weed control at 200 ppm [1] | pest or weed control at 200 ppm [2] | pest or weed control at 200 ppm [3] | inhibition of growth at 20 ppm [4]

CCC(C)C(=O)N(O)Cc1ccc(-c2noc(C(F)(F)F)n2)cc1 (stereo not drawn) [Compound 1.765, N-hydroxy-2-methyl-N-[[4-[5-(trifluoromethyl)-1,2,4-oxadiazol-3-yl]phenyl]methyl]-butanamide]
≥ 80%: pest or weed control at 200 ppm [1] | pest or weed control at 200 ppm [2] | pest or weed control at 200 ppm [3] | inhibition of growth at 20 ppm [4]

COCCC(=O)N(Cc1ccc(-c2noc(C(F)(F)F)n2)cc1)C1COC1 [Compound 1.741, 3-methoxy-N-(oxetan-3-yl)-N-[[4-[5-(trifluoromethyl)-1,2,4-oxadiazol-3-yl]phenyl]methyl]-propanamide]
≥ 80%: pest or weed control at 200 ppm [1] | pest or weed control at 200 ppm [2] | pest or weed control at 200 ppm [3] | inhibition of growth at 20 ppm [4]

CON(Cc1ccc(-c2noc(C(F)(F)F)n2)cc1)C(=O)Cc1cccnc1 [Compound 1.28, N-methoxy-2-(3-pyridyl)-N-[[4-[5-(trifluoromethyl)-1,2,4-oxadiazol-3-yl]phenyl]methyl]-acetamide]
≥ 80%: pest or weed control at 200 ppm [1] | pest or weed control at 200 ppm [2] | pest or weed control at 200 ppm [3] | inhibition of growth at 20 ppm [4]

CCC(COC)C(=O)N(Cc1ccc(-c2noc(C(F)(F)F)n2)cc1)OC (stereo not drawn) [Compound 1.57, N-methoxy-2-(methoxymethyl)-N-[[4-[5-(trifluoromethyl)-1,2,4-oxadiazol-3-yl]phenyl]methyl]-butanamide]
≥ 80%: pest or weed control at 200 ppm [1] | pest or weed control at 200 ppm [2] | pest or weed control at 200 ppm [3] | inhibition of growth at 20 ppm [4]

CC(=O)NCC(=O)N(C)Cc1ccc(-c2noc(C(F)(F)F)n2)cc1 [Compound 1.521, 2-acetamido-N-methyl-N-[[4-[5-(trifluoromethyl)-1,2,4-oxadiazol-3-yl]phenyl]methyl]-acetamide]
≥ 80%: pest or weed control at 200 ppm [1] | pest or weed control at 200 ppm [2] | pest or weed control at 200 ppm [3] | inhibition of growth at 20 ppm [4]

CCC(C)C(=O)N(Cc1ccc(-c2noc(C(F)(F)F)n2)cc1)Cc1ccco1 (stereo not drawn) [Compound 1.466]
≥ 80%: pest or weed control at 200 ppm [1] | pest or weed control at 200 ppm [2] | pest or weed control at 200 ppm [3] | inhibition of growth at 20 ppm [4]

CCC(C)N(Cc1ccc(-c2noc(C(F)(F)F)n2)cc1)C(=O)CC(F)(F)F (stereo not drawn) [Compound 1.404]
≥ 80%: pest or weed control at 200 ppm [1] | pest or weed control at 200 ppm [2] | pest or weed control at 200 ppm [3] | inhibition of growth at 20 ppm [4]

CCCN(Cc1ccc(-c2noc(C(F)(F)F)n2)cc1)C(=O)C1CCCO1 (stereo not drawn) [Compound 1.663, N-propyl-N-[[4-[5-(trifluoromethyl)-1,2,4-oxadiazol-3-yl]pheny1]methyl]-tetrahydrofuran-2-carboxamide]
≥ 80%: pest or weed control at 200 ppm [1] | pest or weed control at 200 ppm [2] | pest or weed control at 200 ppm [3] | inhibition of growth at 20 ppm [4]

CCNC(=O)N(Cc1ccc(-c2noc(C(F)(F)F)n2)cc1)OC [Compound 3.12, 3-ethyl-1-methoxy-1-[[4-[5-(trifluoromethyl)-1,2,4-oxadiazol-3-yl]phenyl]methyl]urea]
≥ 80%: pest or weed control at 200 ppm [1] | pest or weed control at 200 ppm [2] | pest or weed control at 200 ppm [3] | inhibition of growth at 20 ppm [4]

CC1(C(=O)N(O)Cc2ccc(-c3noc(C(F)(F)F)n3)cc2)CC1 [Compound 1.764, N-hydroxy-1-methyl-N-[[4-[5-(trifluoromethyl)-1,2,4-oxadiazol-3-yl]phenyl]methyl]-cyclopropane-carboxamide]
≥ 80%: pest or weed control at 200 ppm [1] | pest or weed control at 200 ppm [2] | pest or weed control at 200 ppm [3] | inhibition of growth at 20 ppm [4]

C=CCN(Cc1ccc(-c2noc(C(F)(F)F)n2)cc1)C(=O)C1CC1 [Compound 1.494, N-allyl-N-[[4-[5-(trifluoromethyl)-1,2,4-oxadiazol-3-yl]phenyl]methyl]-cyclopropane-carboxamide]
≥ 80%: pest or weed control at 200 ppm [1] | pest or weed control at 200 ppm [2] | pest or weed control at 200 ppm [3] | inhibition of growth at 20 ppm [4]

CON(Cc1ccc(-c2noc(C(F)(F)F)n2)cc1)C(=O)CC1CC1(F)F (stereo not drawn) [Compound 1.64, 2-(2.2-difluorocyclopropyl)-N-methoxy-N-[[4-[5-(trifluoromethyl)-1,2,4-oxadiazol-3-yl]phenyl]methyl]-acetamide]
≥ 80%: pest or weed control at 200 ppm [1] | pest or weed control at 200 ppm [2] | pest or weed control at 200 ppm [3] | inhibition of growth at 20 ppm [4]

CCCN(Cc1ccc(-c2noc(C(F)(F)F)n2)cc1)C(=O)C(CC)COC (stereo not drawn) [Compound 1.661, 2-(methoxymethyl)-N-propyl-N-[[4-[5-(trifluoromethyl)-1,2,4-oxadiazol-3-yl]phenyl]methyl]-butanamide]
≥ 80%: pest or weed control at 200 ppm [1] | pest or weed control at 200 ppm [2] | pest or weed control at 200 ppm [3] | inhibition of growth at 20 ppm [4]

C#CCN(Cc1ccc(-c2noc(C(F)(F)F)n2)cc1)C(=O)C(=C)C [Compound 1.187, 2-methyl-N-prop-2-ynyl-N-[[4-[5-(trifluoromethyl)-1,2,4-oxadiazol-3-yl]phenyl]methyl]-prop-2-enamide]
≥ 80%: pest or weed control at 200 ppm [1] | pest or weed control at 200 ppm [2] | pest or weed control at 200 ppm [3] | inhibition of growth at 20 ppm [4]
